Assay results: publication doi:10.1101/2025.01.28.635346v1 (bioRxiv, 2025)
pIC50: −log10 of the molar value. Bridge positions count the residues as written; N and C are the ends. Peptide text beside a SMILES is read from it.

Assays:
[1] = biological target: T1, integrin αvβ6 (Homo sapiens, UniProt P06756+P18564); experiment: ELISA competition assay, integrin αvβ6 binding to LAP
[2] = biological target: T2, Mouse αvβ6 (Mus musculus, UniProt P43406+Q9Z0T9); experiment: ELISA competition assay, mouse integrin αvβ6; type: binding
T2 sequence (P43406 31-988 limits assumed): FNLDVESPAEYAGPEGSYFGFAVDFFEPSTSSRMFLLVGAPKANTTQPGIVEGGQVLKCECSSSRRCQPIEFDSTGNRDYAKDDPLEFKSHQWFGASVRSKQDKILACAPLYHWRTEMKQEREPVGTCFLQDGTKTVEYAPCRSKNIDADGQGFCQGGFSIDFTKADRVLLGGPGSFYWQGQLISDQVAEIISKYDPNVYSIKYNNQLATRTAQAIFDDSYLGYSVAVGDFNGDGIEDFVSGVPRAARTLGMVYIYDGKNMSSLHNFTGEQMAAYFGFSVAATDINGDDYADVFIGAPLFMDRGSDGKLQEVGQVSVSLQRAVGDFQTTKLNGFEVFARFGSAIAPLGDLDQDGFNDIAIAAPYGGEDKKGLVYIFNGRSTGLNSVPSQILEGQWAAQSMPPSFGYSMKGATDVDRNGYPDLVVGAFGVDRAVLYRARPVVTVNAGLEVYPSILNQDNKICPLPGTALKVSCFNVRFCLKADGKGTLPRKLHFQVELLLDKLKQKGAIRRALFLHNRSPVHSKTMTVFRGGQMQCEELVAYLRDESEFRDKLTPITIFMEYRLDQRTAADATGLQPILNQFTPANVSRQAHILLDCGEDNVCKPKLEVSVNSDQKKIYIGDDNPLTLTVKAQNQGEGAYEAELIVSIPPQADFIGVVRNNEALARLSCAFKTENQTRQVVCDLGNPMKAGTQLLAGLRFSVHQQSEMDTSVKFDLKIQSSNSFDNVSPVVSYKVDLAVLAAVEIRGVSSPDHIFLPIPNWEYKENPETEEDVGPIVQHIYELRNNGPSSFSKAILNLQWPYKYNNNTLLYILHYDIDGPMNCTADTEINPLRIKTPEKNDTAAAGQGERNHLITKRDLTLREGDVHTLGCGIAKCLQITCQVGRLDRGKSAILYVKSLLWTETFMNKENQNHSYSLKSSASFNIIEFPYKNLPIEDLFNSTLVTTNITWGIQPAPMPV
T2 sequence (Q9Z0T9 22-707 limits assumed): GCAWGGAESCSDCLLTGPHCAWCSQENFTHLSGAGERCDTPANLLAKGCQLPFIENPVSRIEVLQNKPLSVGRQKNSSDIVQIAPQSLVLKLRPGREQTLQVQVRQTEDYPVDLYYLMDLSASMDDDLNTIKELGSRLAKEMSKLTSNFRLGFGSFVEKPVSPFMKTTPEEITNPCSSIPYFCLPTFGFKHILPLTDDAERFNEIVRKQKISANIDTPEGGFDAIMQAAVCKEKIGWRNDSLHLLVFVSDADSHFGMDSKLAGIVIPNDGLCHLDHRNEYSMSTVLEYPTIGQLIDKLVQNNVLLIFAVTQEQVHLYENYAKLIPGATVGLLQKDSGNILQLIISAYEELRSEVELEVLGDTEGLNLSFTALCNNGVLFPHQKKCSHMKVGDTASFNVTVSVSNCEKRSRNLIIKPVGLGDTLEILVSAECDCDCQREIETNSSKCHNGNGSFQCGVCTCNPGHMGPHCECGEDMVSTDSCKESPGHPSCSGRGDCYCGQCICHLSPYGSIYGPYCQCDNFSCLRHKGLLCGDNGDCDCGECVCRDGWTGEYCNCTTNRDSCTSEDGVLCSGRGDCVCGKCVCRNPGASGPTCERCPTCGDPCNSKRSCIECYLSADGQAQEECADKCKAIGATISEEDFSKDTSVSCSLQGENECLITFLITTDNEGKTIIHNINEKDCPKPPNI

[3] = tested on: αvβ6/8 vs other RGD-integrins; experiment: Selectivity and potency gain for αvβ6/8, worked out from integrin IC50 values; type: binding, human; settings: 24 and 30 vs 14; 35 vs 28; 36 vs 30; 47 vs 36
[4] = biological target: integrin αvβ8 (Homo sapiens, UniProt P06756+P26012); experiment: ELISA competition assay, integrin αvβ8 binding to LAP
[5] = biological target: T1, integrin αvβ6; experiment: AlphaLISA competition assay vs LAP, biotinylated αvβ6; type: binding

Row | pIC50 [1] | pIC50 [5] | SMILES | pIC50 ([1]; Human αvß6 IC50, ELISA run in triplicate, mean, Table S1) | pIC50 ([1]; αvβ6 IC50, ELISA competition vs LAP, mean, n ≥ 3) | pIC50 [2] | improvement in potency (IC50) for αvβ6/8 relative to parent lassotide [3] | pIC50 [4]
1 |  |  | CC[C@H](C)[C@H](NC(=O)[C@H](CC(C)C)NC(=O)[C@H](CC(=O)O)NC(=O)CNC(=O)[C@H](CCCNC(=N)N)NC(=O)[C@@H](NC(=O)[C@H](Cc1ccccc1)NC(=O)[C@H](Cc1ccc(O)cc1)NC(=O)[C@@H]1CCC(=O)NCC(=O)NCC(=O)N[C@@H](CCCNC(=N)N)C(=O)NCC(=O)N[C@@H](Cc2c[nH]cn2)C(=O)N[C@@H](C(C)C)C(=O)N2CCC[C@H]2C(=O)N1)C(C)C)C(=O)N[C@@H](CO)C(=O)N[C@@H](Cc1ccccc1)C(=O)N[C@@H](Cc1ccc(O)cc1)C(=O)NCC(=O)O [lassotide 30] (GGRGHVPEYFVRGDLISFYG-OH; lactam N-8; C-terminus assumed) | 7.77 | 7.52 | 7.62 | 3-4 fold | 7.57
2 | 8.22 | 7.89 | CC(C)C[C@H](NC(=O)[C@H](CC(=O)O)NC(=O)CNC(=O)[C@H](CCCNC(=N)N)NC(=O)[C@@H](NC(=O)[C@H](Cc1ccccc1)NC(=O)[C@H](Cc1ccc(O)cc1)NC(=O)[C@@H]1CCC(=O)NCC(=O)NCC(=O)N[C@@H](C)C(=O)NCC(=O)N[C@@H](Cc2c[nH]cn2)C(=O)N[C@@H](C(C)C)C(=O)N2CCC[C@H]2C(=O)N1)C(C)C)C(=O)N[C@@H](CCC(N)=O)C(=O)N[C@@H](CO)C(=O)N[C@@H](Cc1ccccc1)C(=O)N[C@@H](Cc1ccc(O)cc1)C(=O)NCC(=O)O [lassotide 24] (GGAGHVPEYFVRGDLQSFYG-OH; lactam N-8; C-terminus assumed) |  |  | 8.15 | up to 7 fold | 
